Patent US10538554B2, “Peptides and uses therefor as antiviral agents” (priority 2015, dated 2020)
Bridge positions count the residues as written; N and C are the ends. Square brackets hold non-standard residues; d marks the D form. Peptide text beside a SMILES is read from it.

Columns and labels:
H9N2 A/Iran/16/2000 = details: 48 h, 500 μM
[1] = tested on: H1N1 A1/Malaysia/302/1954; details: A1/Malaysia/302/1954, 48 h, 500 μM
H3N8 A/Miami/2/63 = details: A/Miami/2/63, 48 h, 500 μM
H1N1 A/PR/8/1934 = details: A/PR/8/1934, 48 h, 1 μM

SMILES	% inhibition H9N2 (H9N2 A/Iran/16/2000)	% inhibition H1N1 [1]	% inhibition H3N8 (H3N8 A/Miami/2/63)	% Inhibition (H1N1 A/PR/8/1934)
CC[C@@H](C)[C@H]1NC(=O)[C@@H](Cc2ccccc2)NC(=O)[C@@H](CCCNC(=N)N)NC(=O)[C@@H](CO)NC(=O)[C@@H](CCC(N)=O)NC(=O)[C@@H]([C@H](C)O)NC(=O)[C@H](NC(=O)[C@@H](CCCCN)NC(=O)[C@@H](CCCCN)NC(=O)[C@@H](CCCNC(=N)N)NC(=O)[C@H](N)CCCNC(=N)N)CSSC[C@H](C(=O)O)NC(=O)[C@@H](CC(N)=O)NC1=O [PSP II A14, H-rrkkctqsrfinc-OH] (H-[dR][dR][dK][dK][dC][dT][dQ][dS][dR][dF][dI][dN][dC]-OH; disulfide 5-13)	80%	73%	85%	–
CC[C@@H](C)[C@H]1NC(=O)[C@@H](Cc2ccccc2)NC(=O)[C@@H](CCCNC(=N)N)NC(=O)[C@@H](CO)NC(=O)[C@@H](CCCNC(=N)N)NC(=O)[C@@H]([C@H](C)O)NC(=O)[C@H](NC(=O)[C@@H](CCCCN)NC(=O)[C@@H](CCCCN)NC(=O)[C@@H](CCCNC(=N)N)NC(=O)[C@H](N)CCCNC(=N)N)CSSC[C@H](C(=O)O)NC(=O)[C@@H](CC(N)=O)NC1=O [PSP II A15, H-rrkkctrsrfinc-OH] (H-[dR][dR][dK][dK][dC][dT][dR][dS][dR][dF][dI][dN][dC]-OH; disulfide 5-13)	90%	57.7%	79.4%	–
CC[C@@H](C)[C@H]1NC(=O)[C@@H](Cc2ccccc2)NC(=O)[C@@H](CCCNC(=N)N)NC(=O)[C@@H](CO)NC(=O)[C@@H](CO)NC(=O)[C@@H]([C@H](C)O)NC(=O)[C@H](NC(=O)[C@@H](CCCCN)NC(=O)[C@@H](CCCCN)NC(=O)[C@@H](CCCNC(=N)N)NC(=O)[C@H](N)CCCNC(=N)N)CSSC[C@H](C(=O)O)NC(=O)[C@@H](CC(N)=O)NC1=O [PSP II A16, H-rrkkctssrfinc-OH] (H-[dR][dR][dK][dK][dC][dT][dS][dS][dR][dF][dI][dN][dC]-OH; disulfide 5-13)	90%	61.5%	61.8%	–
CC[C@@H](C)[C@H]1NC(=O)[C@@H](Cc2ccccc2)NC(=O)[C@@H](CCCNC(=N)N)NC(=O)[C@@H](CO)NC(=O)[C@@H]([C@H](C)O)NC(=O)[C@@H]([C@H](C)O)NC(=O)[C@H](NC(=O)[C@@H](CCCCN)NC(=O)[C@@H](CCCCN)NC(=O)[C@@H](CCCNC(=N)N)NC(=O)[C@H](N)CCCNC(=N)N)CSSC[C@H](C(=O)O)NC(=O)[C@@H](CC(N)=O)NC1=O [PSP II A17, H-rrkkcttsrfinc-OH] (H-[dR][dR][dK][dK][dC][dT][dT][dS][dR][dF][dI][dN][dC]-OH; disulfide 5-13)	80%	67.3%	70.6%	–
CC[C@@H](C)[C@H]1NC(=O)[C@@H](Cc2ccccc2)NC(=O)[C@@H](CCCNC(=N)N)NC(=O)[C@@H](CO)NC(=O)[C@@H](C(C)C)NC(=O)[C@@H]([C@H](C)O)NC(=O)[C@H](NC(=O)[C@@H](CCCCN)NC(=O)[C@@H](CCCCN)NC(=O)[C@@H](CCCNC(=N)N)NC(=O)[C@H](N)CCCNC(=N)N)CSSC[C@H](C(=O)O)NC(=O)[C@@H](CC(N)=O)NC1=O [PSP II A18, H-rrkkctvsrfinc-OH] (H-[dR][dR][dK][dK][dC][dT][dV][dS][dR][dF][dI][dN][dC]-OH; disulfide 5-13)	70%	42.3%	47%	–
CC[C@@H](C)[C@H]1NC(=O)[C@@H](Cc2ccccc2)NC(=O)[C@@H](CCCNC(=N)N)NC(=O)[C@@H](CO)NC(=O)[C@@H](Cc2c[nH]c3ccccc23)NC(=O)[C@@H]([C@H](C)O)NC(=O)[C@H](NC(=O)[C@@H](CCCCN)NC(=O)[C@@H](CCCCN)NC(=O)[C@@H](CCCNC(=N)N)NC(=O)[C@H](N)CCCNC(=N)N)CSSC[C@H](C(=O)O)NC(=O)[C@@H](CC(N)=O)NC1=O [PSP II A19, H-rrkkctwsrfinc-OH] (H-[dR][dR][dK][dK][dC][dT][dW][dS][dR][dF][dI][dN][dC]-OH; disulfide 5-13)	100%	88.4%	82.4%	–
CC[C@@H](C)[C@H]1NC(=O)[C@@H](Cc2ccccc2)NC(=O)[C@@H]([C@H](C)O)NC(=O)[C@@H](Cc2ccccc2)NC(=O)[C@@H](Cc2c[nH]c3ccccc23)NC(=O)[C@@H](C)NC(=O)[C@H](NC(=O)[C@H](CCCCN)NC(=O)[C@H](CCCCN)NC(=O)[C@H](CCCNC(=N)N)NC(=O)[C@@H](N)CCCNC(=N)N)CSSC[C@H](C(=O)O)NC(=O)[C@@H](CC(N)=O)NC1=O [PSP V A1, H-RRKKcawftfinc-OH] (H-RRKK[dC][dA][dW][dF][dT][dF][dI][dN][dC]-OH; disulfide 5-13)	–	–	–	<20%
CC[C@@H](C)[C@H]1NC(=O)[C@@H](Cc2ccccc2)NC(=O)[C@@H]([C@H](C)O)NC(=O)[C@@H](Cc2ccccc2)NC(=O)[C@@H](Cc2c[nH]c3ccccc23)NC(=O)[C@@H](CS)NC(=O)[C@H](NC(=O)[C@H](CCCCN)NC(=O)[C@H](CCCCN)NC(=O)[C@H](CCCNC(=N)N)NC(=O)[C@@H](N)CCCNC(=N)N)CSSC[C@H](C(=O)O)NC(=O)[C@@H](CC(N)=O)NC1=O [PSP V A2, H-RRKKccwftfinc-OH] (H-RRKK[dC][dC][dW][dF][dT][dF][dI][dN][dC]-OH; disulfide 5-13)	–	–	–	<20%
CC[C@@H](C)[C@H]1NC(=O)[C@@H](Cc2ccccc2)NC(=O)[C@@H]([C@H](C)O)NC(=O)[C@@H](Cc2ccccc2)NC(=O)[C@@H](Cc2c[nH]c3ccccc23)NC(=O)[C@@H](CC(=O)O)NC(=O)[C@H](NC(=O)[C@H](CCCCN)NC(=O)[C@H](CCCCN)NC(=O)[C@H](CCCNC(=N)N)NC(=O)[C@@H](N)CCCNC(=N)N)CSSC[C@H](C(=O)O)NC(=O)[C@@H](CC(N)=O)NC1=O [PSP V A3, H-RRKKcdwftfinc-OH] (H-RRKK[dC][dD][dW][dF][dT][dF][dI][dN][dC]-OH; disulfide 5-13)	–	–	–	<20%
CC[C@@H](C)[C@H]1NC(=O)[C@@H](Cc2ccccc2)NC(=O)[C@@H]([C@H](C)O)NC(=O)[C@@H](Cc2ccccc2)NC(=O)[C@@H](Cc2c[nH]c3ccccc23)NC(=O)[C@@H](CCC(=O)O)NC(=O)[C@H](NC(=O)[C@H](CCCCN)NC(=O)[C@H](CCCCN)NC(=O)[C@H](CCCNC(=N)N)NC(=O)[C@@H](N)CCCNC(=N)N)CSSC[C@H](C(=O)O)NC(=O)[C@@H](CC(N)=O)NC1=O [PSP V A4, H-RRKKcewftfinc-OH] (H-RRKK[dC][dE][dW][dF][dT][dF][dI][dN][dC]-OH; disulfide 5-13)	–	–	–	27%
CC[C@@H](C)[C@H]1NC(=O)[C@@H](Cc2ccccc2)NC(=O)[C@@H]([C@H](C)O)NC(=O)[C@@H](Cc2ccccc2)NC(=O)[C@@H](Cc2c[nH]c3ccccc23)NC(=O)[C@@H](Cc2ccccc2)NC(=O)[C@H](NC(=O)[C@H](CCCCN)NC(=O)[C@H](CCCCN)NC(=O)[C@H](CCCNC(=N)N)NC(=O)[C@@H](N)CCCNC(=N)N)CSSC[C@H](C(=O)O)NC(=O)[C@@H](CC(N)=O)NC1=O [PSP V A5, H-RRKKcfWftfinc-OH] (H-RRKK[dC][dF][dW][dF][dT][dF][dI][dN][dC]-OH; disulfide 5-13)	–	–	–	57%
